From patent publication US20040266008A1, “Polyene polyketides, processes for their production and their use as pharmaceuticals” (Ecopia BioSciences, Inc., priority 2003, published 2004)

Key:
[1] = tested on: C. albicans (Ctro); assay: MIC broth microdilution, C. albicans (Ctro)
[2] = tested on: C. glabrata (Cgla); assay: MIC broth microdilution, C. glabrata (Cgla)
[3] = tested on: S. cerevisiae (Scer); assay: MIC broth microdilution, S. cerevisiae (Scer)
[4] = tested on: Candida sp. (Cflu); assay: MIC broth microdilution, Candida sp. (Cflu)
[5] = tested on: C. albicans (Calb); assay: MIC broth microdilution, C. albicans (Calb)

Q: What does the source list for `C[C@@H]1[C@H](O)[C@@H](C)/C=C/C=C/C=C/C=C/C=C/C=C/C=C/[C@H](O[C@@H]2O[C@H](C)[C@@H](O)[C@H](N)[C@@H]2O)C[C@@H]2O[C@](O)(C[C@@H](O)C[C@@H](O)[C@H](O)CC[C@@H](O)C[C@@H](O)CC(=O)O[C@H]1C)C[C@H](O)[C@H]2C(=O)O` [Amphotericin B]?
A: Minimal Inhibitory Concentrations ([1]; 24 hrs): 1 µg/mL; Minimal Inhibitory Concentrations ([1]; 48 hrs): 2 µg/mL; Minimal Inhibitory Concentrations ([2]; 24 hrs): 0.5 to 1 µg/mL; Minimal Inhibitory Concentrations ([2]; 48 hrs): 1 µg/mL; Minimal Inhibitory Concentrations ([3]; 24 hrs): 0.5 µg/mL; Minimal Inhibitory Concentrations ([3]; 48 hrs): 1 µg/mL; Minimal Inhibitory Concentrations ([4]; 24 hrs): 0.5 to 1 µg/mL; Minimal Inhibitory Concentrations ([4]; 48 hrs): 1 µg/mL; Minimal Inhibitory Concentrations ([5]; 24 hrs): 0.5 to 1 µg/mL; Minimal Inhibitory Concentrations ([5]; 48 hrs): 1 µg/mL

Q: How did the “Minimal Inhibitory Concentrations” value ([1]; 24 hrs) turn out when `C\C(=C/C=C/C=C/CC/C=C/C(C)C(O)C(C)C(O)/C=C/C=C/C=C/C=C/C=C/C=C/CC(OS(=O)(=O)O)C(C)C(=O)CC(O)CC(O)/C=C/CC(O)CC(O)CC(O)/C=C/CC(O)CC(O)/C=C/CC(O)CC(O)CCCNC(=N)N)C(=O)O` (centres unmarked) [Compound 1] was run?
A: 4 µg/mL

Q: What about the “Minimal Inhibitory Concentrations” value ([2]; 24 hrs) of the same compound?
A: 4 µg/mL

Q: And the “Minimal Inhibitory Concentrations” value ([3]; 24 hrs)?
A: 4 µg/mL

Q: What about the “Minimal Inhibitory Concentrations” value ([4]; 24 hrs) of the same compound?
A: 8 µg/mL

Q: And the “Minimal Inhibitory Concentrations” value ([5]; 24 hrs)?
A: 4 µg/mL

Q: Which results are given for `C\C(=C/C=C/C=C/CC/C=C/C(C)C(O)C(C)C(O)/C=C/C=C/C=C/C=C/C=C/C=C/CC(O)C(C)C(=O)CC(O)CC(O)/C=C/CC(O)CC(O)CC(O)/C=C/CC(O)CC(O)/C=C/CC(O)CC(O)CCCNC(=N)N)C(=O)O` (centres unmarked) [Compound 2]?
A: Minimal Inhibitory Concentrations ([1]; 48 hrs): 4 µg/mL; Minimal Inhibitory Concentrations ([2]; 48 hrs): 4 µg/mL; Minimal Inhibitory Concentrations ([3]; 48 hrs): 4 µg/mL; Minimal Inhibitory Concentrations ([4]; 48 hrs): 8 µg/mL; Minimal Inhibitory Concentrations ([5]; 48 hrs): 4 µg/mL
